Assay [1] relates to HCT116 cell line. As to the kind of experiment: Tumor volume in mice transplanted with HCT116 colorectal cancer cell line after PHI-101 and radiation. In kind it is in vivo. The conditions noted are these: HCT116 xenograft mice; PHI-101 20 mg/kg intraperitoneally 24 h and 3 h before and 24 h after 3 Gy X-ray, repeated twice at one-week interval; combination. As to the method: (§1) 6-week-old female Balb/c nu/nu mice (Orient Bio Inc.) and NOD SCID mice (Orient Bio Inc.) were prepared. The mice were acclimated for 1 week after purchase, and then tumor transplants were prepared. During the animal experiment, cages were replaced once a week, and drinking water and feed were often checked to ensure that they were always sufficiently supplied.
(§2) Each of the tumor cell lines shown in Table 1 below was cultured with DMEM (Dulbecco's Modified Eagle Medium) or RPMI-1640 in a 150-mm culture dish (SPL) under 5% CO2 at 37° C. Then, each tumor cell line was diluted to a density of 1×10^6 cells/100 μl using cold DPBS buffer (Welgene), and kept cold on ice until transplantation. […]
(§3) When each tumor cell line transplanted to the mice in Example 1-2 proliferated and the tumor begun to be visible, the lengths of the longest and shortest diameters of the tumor were measured using digital calipers (Mitutoyo). […]
(§4) The tumor volume was measured at intervals of 2 to 4 days, and was calculated using the following equation: V=½(L×W^2) • V=volume (mm^3) • L=length [mm], the longest diameter • W=width [mm], the shortest diameter
(§5) The measurement end time was determined based on when the average volume of the control tumor reached about 2,000 mm^3. The data of the measured tumor volume was first organized in Microsoft Excel, and plotted in GraphPad Prism. […]

Assay [2] relates to JIMT-1 breast cancer cell line. As to the kind of experiment: Clonogenic assay after PHI-101 and radiation, JIMT-1. In kind it is cell-based. The following applies: PHI-101 0.1, 0.2 or 0.5 μM, 0, 1, 2 or 3 Gy 3 hours after treatment, colonies after 10 days. How it is done: (§6) Whether the PHI-101 compound can act as a radiotherapy sensitizer for breast cancer was evaluated using clonogenic assay.
(§7) Specifically, each of the breast cancer cell lines shown in Table 2 below was added to DMEM medium in a 60-mm dish at a density of 300 cells, and treated with PHI-101 at a concentration of 0.1, 0.2 or 0.5 μM. As a control, DMSO was used.
(§8) 3 hours after PHI-101 treatment, the cells were irradiated with radiation having an intensity of 0, 1, 2 or 3 Gy. Next, the cells were cultured under 5% CO2 at 37° C. for 10 days, and then the formed colonies were stained with 0.4% crystal violet. Then, the colonies were counted and the surviving fraction of the cells was calculated. The results of calculating the surviving fraction were normalized and fitted to a linear-quadratic model using Kaleidagraph version 351 (Synergy Software, Reading, PA).

The test system of assay [3] is FaDu cell line. As to the kind of experiment: Tumor volume in mice transplanted with FaDu head and neck cancer cell line after PHI-101 and radiation. In kind it is in vivo. The following applies: FaDu xenograft mice; PHI-101 20 mg/kg intraperitoneally 3 h before and 24, 48, 72, 96 h after 3 Gy 60Co γ-ray, repeated three times for 3 weeks; combination. How it is done: as §1, §2, §3, §4, §5

For assay [4], the system named is JIMT-1 cell line. As to the kind of experiment: Tumor volume in mice transplanted with JIMT-1 breast cancer cell line after PHI-101 and radiation. In kind it is in vivo. The conditions noted are these: JIMT-1 xenograft mice; PHI-101 20 mg/kg intraperitoneally 24 h and 3 h before and 24, 48, 72 h after 3 Gy 60Co γ-ray, repeated three times for 3 weeks; combination. As to the method:
as §1, §2, §3, §4, §5

Assay [5] has as its system MDA-MB-468 breast cancer cell line. As to the kind of experiment: Clonogenic assay after PHI-101 and radiation, MDA-MB-468. The assay is classed as cell-based. The following applies: PHI-101 0.1, 0.2 or 0.5 μM, 0, 1, 2 or 3 Gy 3 hours after treatment, colonies after 10 days. As to the method: as §6, §7, §8

Each structure is given as a SMILES string.

For `NC(=O)Nc1cc(C#Cc2cccc(F)c2)sc1C(=O)N[C@H]1CCCNC1` [PHI-101, (S)-5-((3-fluorophenyl)ethynyl)-N-(piperidin-3-yl)-3-ureido-thiophene-2-carboxamide], the “tumor volume inhibited compared to when only irradiation was performed” value in assay [1] is listed as 36.60%; in assay [3], 29.16%; in assay [4], 20.53%. The “tumor volume reduced compared to that in the control group” value in assay [1] was determined as 49.58%; in assay [3], 37.50%; in assay [4], 27.32%. For the same molecule, the “radiation sensitivity of the breast cancer cells (surviving fraction, linear-quadratic model)” value in assay [2] and in assay [5] was “increased in a concentration-dependent manner” throughout.

The values above are taken from patent publication US12685729B2, “Use of 2,3,5-substituted thiophene compound for enhancement of radiotherapy” (Pharos iBio Co., Ltd., priority 2018, dated 2026).
